Assay results taken from PubChem BioAssay AID1918999 (Molecular Pharmacology Branch, DTP, NCI, 2023).
One block for each molecule: values may come before it.

Test system: 556581-035-R-J1-PDC complex spheroid growth
Assay: Anticancer human tumor 556581-035-R-J1-PDC patient-derived ovarian carcinoma cell line growth inhibition [AhR]
Details: for IC50: curve of first compound; for viability, T/C: stronger effect = lower value
How it was run: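 Agents were dosed in half-log steps down from roughly clinical Cmax, or from 10 microM where Cmax was unknown, alone and with AhR antagonists. Read-out: percent test/control growth of tumor spheroids containing HUVEC and MSC stromal cells.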

[1] = second compound 0.1 µM, first compound 0.0316 µM
[2] = second compound 0.1 µM, first compound 0.1 µM
[3] = second compound 0.1 µM, first compound 0.316 µM
[4] = second compound 0.1 µM, first compound 1 µM
[5] = second compound 0.1 µM, first compound 3.16 µM
[6] = second compound 0.1 µM, first compound 10 µM
[7] = second compound 0.316 µM, first compound 0.0316 µM
[8] = second compound 0.316 µM, first compound 0.1 µM
[9] = second compound 0.316 µM, first compound 0.316 µM
[10] = second compound 0.316 µM, first compound 1 µM
[11] = second compound 0.316 µM, first compound 3.16 µM
[12] = second compound 0.316 µM, first compound 10 µM
[13] = second compound 1 µM, first compound 0.0316 µM
[14] = second compound 1 µM, first compound 0.1 µM
[15] = second compound 1 µM, first compound 0.316 µM
[16] = second compound 1 µM, first compound 1 µM
[17] = second compound 1 µM, first compound 3.16 µM
[18] = second compound 1 µM, first compound 10 µM
[19] = second compound 3.16 µM, first compound 0.0316 µM
[20] = second compound 3.16 µM, first compound 0.1 µM
[21] = second compound 3.16 µM, first compound 0.316 µM
[22] = second compound 3.16 µM, first compound 1 µM
[23] = second compound 3.16 µM, first compound 3.16 µM
[24] = second compound 3.16 µM, first compound 10 µM
[25] = second compound 10 µM, first compound 0.0316 µM
[26] = second compound 10 µM, first compound 0.1 µM
[27] = second compound 10 µM, first compound 0.316 µM
[28] = second compound 10 µM, first compound 1 µM
[29] = second compound 10 µM, first compound 3.16 µM
[30] = second compound 10 µM, first compound 10 µM
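Wherever viability, T/C is given: compound exposure lasted 7 days; 100% = DMSO vehicle control growth.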

IC50 (second compound 0.1 µM): > 10 µM
IC50 (second compound 0.316 µM): > 10 µM
IC50 (second compound 1 µM): > 10 µM
IC50 (second compound 3.16 µM): > 10 µM
IC50 (second compound 10 µM): > 10 µM
Compound: CC(C)c1c(-c2ccccc2)nc2c(C#N)c[nH]n2c1=O + Cc1ccccc1N=Nc1ccc(NC(=O)c2ccnn2C)c(C)c1
viability, T/C [1]: 106%
viability, T/C [2]: 111%
viability, T/C [3]: 103%
viability, T/C [4]: 104%
viability, T/C [5]: 97.7%
viability, T/C [6]: 93.4%
viability, T/C [7]: 96.7%
viability, T/C [8]: 94.1%
viability, T/C [9]: 107%
viability, T/C [10]: 96.1%
viability, T/C [11]: 85.5%
viability, T/C [12]: 103%
viability, T/C [13]: 110%
viability, T/C [14]: 108%
viability, T/C [15]: 96%
viability, T/C [16]: 106%
viability, T/C [17]: 106%
viability, T/C [18]: 95.8%
viability, T/C [19]: 95.6%
viability, T/C [20]: 92.2%
viability, T/C [21]: 104%
viability, T/C [22]: 83.6%
viability, T/C [23]: 96%
viability, T/C [24]: 87.9%
viability, T/C [25]: 94.7%
viability, T/C [26]: 86.8%
viability, T/C [27]: 80.9%
viability, T/C [28]: 91.5%
viability, T/C [29]: 84.5%
viability, T/C [30]: 76.9%

IC50 (second compound 0.1 µM): > 0.1 µM
IC50 (second compound 0.316 µM): > 0.1 µM
IC50 (second compound 1 µM): > 0.1 µM
IC50 (second compound 3.16 µM): > 0.1 µM
IC50 (second compound 10 µM): > 0.1 µM
Compound: CC[C@@]1(O)C(=O)OCc2c1cc1n(c2=O)Cc2cc3c(CN(C)C)c(O)ccc3nc2-1 + Cc1ccccc1N=Nc1ccc(NC(=O)c2ccnn2C)c(C)c1
viability, T/C (second compound 0.1 µM, first compound 0.000316 µM): 94.8%
viability, T/C (second compound 0.1 µM, first compound 0.001 µM): 98.5%
viability, T/C (second compound 0.1 µM, first compound 0.00316 µM): 91.5%
viability, T/C (second compound 0.1 µM, first compound 0.01 µM): 82.3%
viability, T/C [1]: 70.4%
viability, T/C [2]: 50.6%
viability, T/C (second compound 0.316 µM, first compound 0.000316 µM): 108%
viability, T/C (second compound 0.316 µM, first compound 0.001 µM): 104%
viability, T/C (second compound 0.316 µM, first compound 0.00316 µM): 92.6%
viability, T/C (second compound 0.316 µM, first compound 0.01 µM): 73.7%
viability, T/C [7]: 69.1%
viability, T/C [8]: 54.9%
viability, T/C (second compound 1 µM, first compound 0.000316 µM): 101%
viability, T/C (second compound 1 µM, first compound 0.001 µM): 93.7%
viability, T/C (second compound 1 µM, first compound 0.00316 µM): 84.7%
viability, T/C (second compound 1 µM, first compound 0.01 µM): 79.1%
viability, T/C [13]: 65%
viability, T/C [14]: 60.3%
viability, T/C (second compound 3.16 µM, first compound 0.000316 µM): 81.3%
viability, T/C (second compound 3.16 µM, first compound 0.001 µM): 83%
viability, T/C (second compound 3.16 µM, first compound 0.00316 µM): 83.4%
viability, T/C (second compound 3.16 µM, first compound 0.01 µM): 72%
viability, T/C [19]: 62.9%
viability, T/C [20]: 53.1%
viability, T/C (second compound 10 µM, first compound 0.000316 µM): 89.2%
viability, T/C (second compound 10 µM, first compound 0.001 µM): 91.4%
viability, T/C (second compound 10 µM, first compound 0.00316 µM): 91.1%
viability, T/C (second compound 10 µM, first compound 0.01 µM): 69%
viability, T/C [25]: 64.7%
viability, T/C [26]: 55.1%

IC50 (second compound 0.1 µM): 8.38 µM
IC50 (second compound 0.316 µM): 5.93 µM
IC50 (second compound 1 µM): 5.94 µM
IC50 (second compound 3.16 µM): 7 µM
IC50 (second compound 10 µM): > 10 µM
Compound: COc1cc(C2c3cc4c(cc3C(OC3OC5COC(C)OC5C(O)C3O)C3COC(=O)C23)OCO4)cc(OC)c1O (stereo not given) + Cc1cncc(-c2nc(NCCc3c[nH]c4ccccc34)c3ncn(C(C)C)c3n2)c1
viability, T/C [1]: 97.9%
viability, T/C [2]: 97.9%
viability, T/C [3]: 87.4%
viability, T/C [4]: 72.4%
viability, T/C [5]: 62.2%
viability, T/C [6]: 47.4%
viability, T/C [7]: 94%
viability, T/C [8]: 107%
viability, T/C [9]: 88.8%
viability, T/C [10]: 75.9%
viability, T/C [11]: 65.3%
viability, T/C [12]: 39%
viability, T/C [13]: 95.6%
viability, T/C [14]: 103%
viability, T/C [15]: 92.8%
viability, T/C [16]: 78.8%
viability, T/C [17]: 59%
viability, T/C [18]: 42.9%
viability, T/C [19]: 96.7%
viability, T/C [20]: 92.5%
viability, T/C [21]: 89.2%
viability, T/C [22]: 72.4%
viability, T/C [23]: 64.7%
viability, T/C [24]: 43.7%
viability, T/C [25]: 83.7%
viability, T/C [26]: 76.8%
viability, T/C [27]: 78.2%
viability, T/C [28]: 73.8%
viability, T/C [29]: 62.9%
viability, T/C [30]: 50.6%
